Results reported in the NIST ThermoML archive (doi:10.1016/j.fluid.2014.11.010).
Numbers after ± are expanded uncertainties.

Details: 313.15 K; Liquid; Closed cell (Static) method

Compound	vapor or sublimation pressure [kPa]
CCCCO [butan-1-ol]	2.506 ± 0.015
CCC(C)O (centres undefined) [butan-2-ol]	6.05 ± 0.02
C=CCCCC [hex-1-ene]	45 ± 0.092
Cc1ccccc1 [toluene]	7.876 ± 0.022
